# According to patent US12545906B2, “Methods and compositions for selection of functional aptamers” (Aummune Ltd., priority 2018, dated 2026):
# Key:
# [1] = tested on: tumor cells in EVOC samples from TNBC patients; experiment: human ex-vivo organ cultures (EVOC), graded pathological assessment; assay type: cell-based; conditions: 0-4 scale, 2 blinded pathologists; 20-50 μM, two doses, 5 days; EVOC from 2 patients
# Protocol: Graded pathological assessment was made on a scale of 0-4 by two blinded pathologists. White stars denote samples in which an effect reached a grade of at least 3. Rnd, random.
# The efficacy of aptamer E8 (described in Example 10) was evaluated in human ex-vivo organ cultures (EVOC). EVOCs were freshly derived from two representative TNBC patients and were prepared by Curesponse. 250 μm wide tissue slices were plated onto a 24 well plate in culture medium at high oxygen conditions. Cancer cells of the primary tumor were kept viable for up to 14 days.
# The E8 aptamer and other chemotherapies (palbociclib, everolimus, fulvestrant) were administered at concentrations of 20-50 μM to the EVOCs. Following day 1, sample medium was replaced and a second dose of the same concentration of therapies were administered. After 5 days, samples were fixed with 4% w/v paraformaldehyde and histological sections were prepared and stained with hematoxylin-eosin. Effects were graded by 2 blinded pathologists on a 0-4 scale.
# TNBC cells = experiment: effect of E8 on TNBC cells in mouse serum; assay type: cell-based
# From the text: (§1) The 10 most abundant aptamer sequences are highlighted. Panel B is a representative screening of the 10 most abundant aptamers from Panel A for significant caspase-3/7 activation in comparison to vehicle (V) and random oligonucleotide (R) in TNBC9 cells. Aptamer IDs labeled 1-10 (E1, E2, . . . . E10). […] STA, staurosporine; PAC, paclitaxel; Random, random oligonucleotide.
# (See, e.g., Yamashita, M. et al. A novel method for evaluating antibody-dependent cell-mediated cytotoxicity by flow cytometry using cryopreserved human peripheral blood mononuclear cells. Sci. Rep. 6, 19772 (2016); Romano, E. et al. Ipilimumab-dependent cell-mediated cytotoxicity of regulatory T cells ex vivo by nonclassical monocytes in melanoma patients. Proc. Natl. Acad. Sci. U.S.A 112, 6140-6145 (2015); Kumar, R. et al. PD-1 blockade restores impaired function of ex vivo expanded CD8 T cells and enhances apoptosis in mismatch repair deficient EpCAMPD-L1 cancer cells. Onco. Targets. Ther. 10, 3453-3465 (2017), each of which is hereby incorporated by reference.).
# TNBC9 cells = experiment: induction of caspase-3/7 activation / target killing in TNBC9 cells; assay type: cell-based, human
# From the text: as §1
# Functional enrichment of aptamers that mediate apoptosis of patient-derived xenograft (PDX)-derived triple negative breast cancer (TNBC) cells, termed TNBC9 (Example 8) was followed by selection of lead molecules. Based on sequencing analysis (FIG. 10, Panel A), the 10 most abundant sequences in the functionally enriched aptamer population were selected, synthesized, and folded.
# The effectiveness of the selected candidate aptamers in target killing was measured on TNBC9 cells. Specifically, candidate aptamers were synthesized, folded, directly tested for induction of caspase-3/7 activation in TNBC9 cells.
# red blood cells = experiment: incubation with red blood cells: agglutination and hemolysis; assay type: cell-based, human; conditions: varying concentrations of E8
# Protocol: (§2) Varying concentrations of E8 aptamer candidate were incubated with red blood cells and, separately, with PBMCs from healthy donors to ensure E8 administration is applicable in a clinical setting. No effects of blood agglutination or red blood cell hemolysis were measured.
# MDA-MB-231 cells = experiment: effect of E8 on MDA-MB-231 cells; assay type: cell-based
# [2] = tested on: PBMCs from healthy donors; experiment: cytokine antibody array assay on PBMCs; assay type: cell-based, human; conditions: varying concentrations of E8
# Protocol: as §2
# [3] = tested on: MDA-MB-231-derived tumors; experiment: efficacy of E8 on tumor volume in tumor-bearing mice; assay type: in vivo, NOD/SCID mice
# From the text: White arrows point to tumor locations. […] Inset region is shown magnified on the right, white arrowhead points to tumor site. […] Asterisks denote a statistically difference with p<0.05 (n=8 mice/group). […] Panel F-G show histochemical analysis of caspase-3 activity in tumor-derived tissue sections (Panel F, vehicle-treated; Panel G, E8-treated). Panel H-I show TUNEL analysis of tumor-derived tissue sections (H, vehicle-treated; I, E8-treated).
# To evaluate the efficacy of E8 on tumor volume, the PEGylated aptamer was injected once every 2 days during the course of an 11-day period, at a dose of 100 mg/kg (equivalent in molar terms to standard chemotherapy).
# MCF10A cells = experiment: selectivity of cell death induction, negative target cells; assay type: cell-based, human; conditions: selectivity at the target cell level
# [4] = PEGylated aptamer, 100 mg/kg once every 2 days
# [5] = following injection of E8 compared to the PBS control
sequence,measurement,setting,value
CGGACTCACGCAAGAGCGTTTGGCAGTGTAAAACTGTTTAACGTATCTGCTCGC (chemistry not given here) [Aptamer E8],pathological grade of effect on tumor cells,[1],3-4
same,function in mouse serum,TNBC cells,retained function in mouse serum
same,induction of apoptosis (caspase-3/7 activation),TNBC9 cells; compared to vehicle alone or random oligonucleotides,most effective of the selected aptamers at inducing apoptosis
same,level of direct target killing,"TNBC9 cells; in-vitro and ex-vivo, independent biological replicate experiments",20-40%
same,"cell killing, target cells",TNBC9 cells; selectivity at the target cell level,killing TNBC9
same,blood agglutination,red blood cells,No effects
same,red blood cell hemolysis,red blood cells,No effects
same,effect on MDA-MB-231 cells,MDA-MB-231 cells,remarkable effect
same,cytokine release,[2],Only minor release of certain cytokines
same,TUNEL analysis (apoptotic DNA fragmentation) of tumor-derived tissue sections,[3]; [4],increase in cell death
same,histochemical analysis of caspase-3 activity in tumor-derived tissue sections,[3]; [4],significant staining
same,tumor volume change compared to vehicle-treated animals,"[3]; PEGylated aptamer, 100 mg/kg once every 2 days over 11 days",decreased significantly
same,final tumor volume on day 11,"[3]; PEGylated aptamer, 100 mg/kg once every 2 days over 11 days, vehicle 301±51",168±39 mm^3
same,macroscopic appearance of extracted tumors,"[3]; PEGylated aptamer, 100 mg/kg once every 2 days, tumors excised day 11",macroscopic signs of tissue death
same,body weight,[3]; [5],No significant changes
same,physical appearance,[3]; [5],No significant changes
same,"cell killing, negative target cells",MCF10A cells,but not MCF10A cells
